From patent publication USRE47689E1, “Compounds for treating spinal muscular atrophy” (PTC Therapeutics, Inc., priority 2011, dated 2019)

Columns and labels:
[1] = system: gems (Smn-dependent nuclear speckles); test: Gems count (Smn-dependent nuclear speckle count) assay; type: cell-based, human; details: SMA Type 1 patient fibroblasts; 48 hours; fluorescence microscopy
Description: The level of Smn protein directly correlates with the amount of nuclear foci, also known as gems, produced upon staining the cell with a fluorescently labeled anti-Smn antibody (Liu and Dreyfuss, EMBO J., 1996, 15:3555). Gems are multi-protein complexes whose formation is nucleated by the Smn protein and the gems count assay is used to evaluate the level of Smn protein in the cell. As described herein, the gems count assay is used to quantify the level of Smn protein in SMA patient fibroblast cells treated with a test compound.
Protocol: Cells are thawed and incubated in DMEM-10% FBS for 72 hours, then trypsinized, counted and resuspended to 100,000 cells/mL in DMEM-10% FBS. 2 mL of the cell suspension is plated in a 6-well cell culture plate with a sterile cover slip and incubated for 3 to 5 hours. Test compounds are serially diluted 3.16-fold in 100% DMSO to generate a 7-point dilution curve. […]
Cell culture medium is aspirated from the wells containing cover slips and gently washed three times with cold PBS. […] The number of gems is counted per ≥150 nuclei and % activation is calculated using DMSO and 10 nM bortezomib as controls. For each test compound, the cells are examined at all wavelengths to identify test compounds with inherent fluorescence.

Smn protein = Smn protein in tissues of neonatal Δ7 SMA mice; type: in vivo, mouse; details: neonatal SMA Δ7 homozygous knockout mice; brain, spinal cord, muscle; IP QD from PND 3 to day 9
Protocol: Protocol. The tissue samples in Safe-Lock tubes are weighed and the volume of RIPA buffer containing the protease inhibitor cocktail is added based on the weight to volume ratios for each type of tissue: Brain (50 mg/mL), Muscle (50 mg/mL) and Spinal Cord (25 mg/mL).
Tissues are homogenized using the TissueLyzer by bead milling. 5 mm stainless steel beads are added to the sample and shaken vigorously for 5 minutes at 30 Hz in the TissueLyzer. The samples are then centrifuged for 20 minutes at 14,000×g in a microcentrifuge and the homogenates transferred to the PCR plate. The homogenates are diluted in RIPA buffer to approximately 1 mg/mL for HTRF and approximately 0.5 mg/mL for total protein measurement using the BCA protein assay. […] Fluorescence for each well of the plate at 665 nm and 620 nm is measured on an EnVision multilabel plate reader (Perkin-Elmer). The total protein in the tissue homogenate is measured using the BCA assay according to the manufacturer's protocol.
The normalized fluorescence signal is calculated for each sample, Blank and vehicle control well by dividing the signal at 665 nm by the signal at 620 nm. Normalizing the signal accounts for possible fluorescence quenching due to the matrix effect of the tissue homogenate. […] The ΔF value for each tissue sample well is divided by the total protein quantity (determined using the BCA assay) for that tissue sample. […]

| SMILES | number of gems relative to DMSO [1] | total protein normalized Smn level (Smn protein) |
| --- | --- | --- |
| CCN1CCN(c2ccc3cc(-c4cn5cc(C)nc(C)c5n4)c(=O)oc3c2)C[C@@H]1C [Cpd 626, 3-(6,8-dimethylimidazo[1,2-a]pyrazin-2-yl)-7-[(3S)-4-ethyl-3-methylpiperazin-1-yl]-2H-chromen-2-one] | progressively more gems relative to cells treated with DMSO | dose dependently increased |
| CC(C)NCCc1ccc2cc(-c3nc4c(Cl)cccc4s3)c(=O)oc2c1 [Cpd 35, 3-(4-chloro-1,3-benzothiazol-2-yl)-7-[2-(propan-2-ylamino)ethyl]-2H-chromen-2-one] | progressively more gems relative to cells treated with DMSO | dose dependently increased |
